Data from ChEMBL document CHEMBL5653615 (J Biol Chem, 2013).
Values belong to the molecule of their own block, whether it stands above or below them.

Key:
[1] = target: T1, Lymphokine-activated killer T-cell-originated protein kinase (Homo sapiens) (UniProt Q96KB5); test: Inhibition of human TOPK at 18.6 nM by HotSpot assay relative to control
T1 sequence (whole entry): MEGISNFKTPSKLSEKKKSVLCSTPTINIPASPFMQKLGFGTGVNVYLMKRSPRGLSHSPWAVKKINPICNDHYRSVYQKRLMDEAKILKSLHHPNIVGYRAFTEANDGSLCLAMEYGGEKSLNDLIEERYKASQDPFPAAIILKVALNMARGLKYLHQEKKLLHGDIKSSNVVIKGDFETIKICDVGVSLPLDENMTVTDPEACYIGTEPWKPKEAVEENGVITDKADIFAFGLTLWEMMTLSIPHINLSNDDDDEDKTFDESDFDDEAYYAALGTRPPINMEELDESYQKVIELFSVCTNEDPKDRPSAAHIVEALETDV

[2] = target: Insulin receptor-related protein (Homo sapiens) (UniProt P14616); test: Inhibition of human IRR at 18.6 nM by HotSpot assay relative to control
[3] = target: T2, TGF-beta receptor type-1 (Homo sapiens) (UniProt P36897); test: Inhibition of human ALK5 at 1.82 nM by HotSpot assay relative to control
T2 sequence (whole entry): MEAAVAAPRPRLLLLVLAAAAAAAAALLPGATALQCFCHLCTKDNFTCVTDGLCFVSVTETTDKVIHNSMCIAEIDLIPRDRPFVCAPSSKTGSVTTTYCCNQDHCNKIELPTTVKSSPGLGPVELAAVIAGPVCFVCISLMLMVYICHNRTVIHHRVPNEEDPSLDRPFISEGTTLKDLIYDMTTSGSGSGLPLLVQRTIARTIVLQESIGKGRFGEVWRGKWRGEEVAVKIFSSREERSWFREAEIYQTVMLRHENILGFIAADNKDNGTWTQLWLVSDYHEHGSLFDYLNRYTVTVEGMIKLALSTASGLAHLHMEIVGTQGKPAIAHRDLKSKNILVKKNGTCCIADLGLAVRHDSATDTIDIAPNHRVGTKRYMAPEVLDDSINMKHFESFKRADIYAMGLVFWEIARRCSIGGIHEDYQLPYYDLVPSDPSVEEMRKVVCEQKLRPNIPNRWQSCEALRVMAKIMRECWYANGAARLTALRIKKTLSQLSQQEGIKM

[4] = target: Vascular endothelial growth factor receptor 1 (Homo sapiens) (UniProt P17948); test: Inhibition of human FLT1 at 1.82 nM by HotSpot assay relative to control
[5] = target: Ribosomal protein S6 kinase alpha-3 (Homo sapiens) (UniProt P51812); test: Inhibition of human RSK2 at 1.82 nM by HotSpot assay relative to control
[6] = target: Leukocyte tyrosine kinase receptor (Homo sapiens) (UniProt P29376); test: Inhibition of human LTK at 1.82 nM by HotSpot assay relative to control
[7] = target: Myosin light chain kinase 2, skeletal/cardiac muscle (Homo sapiens) (UniProt Q9H1R3); test: Inhibition of human MYLK2 at 1.82 nM by HotSpot assay relative to control
[8] = target: Dual specificity protein kinase CLK3 (Homo sapiens) (UniProt P49761); details: dose 1.82 nM
Description: Inhibition of human CLK3 at 1.82 nM by HotSpot assay relative to control

[9] = target: Calcium/calmodulin-dependent protein kinase type 1G (Homo sapiens) (UniProt Q96NX5); test: Inhibition of human CAMK1g at 1.82 nM by HotSpot assay relative to control
[10] = target: T3, Serine/threonine-protein kinase Nek1 (Homo sapiens) (UniProt Q96PY6); test: Inhibition of human NEK1 at 500 nM by HotSpot assay relative to control
T3 sequence (whole entry): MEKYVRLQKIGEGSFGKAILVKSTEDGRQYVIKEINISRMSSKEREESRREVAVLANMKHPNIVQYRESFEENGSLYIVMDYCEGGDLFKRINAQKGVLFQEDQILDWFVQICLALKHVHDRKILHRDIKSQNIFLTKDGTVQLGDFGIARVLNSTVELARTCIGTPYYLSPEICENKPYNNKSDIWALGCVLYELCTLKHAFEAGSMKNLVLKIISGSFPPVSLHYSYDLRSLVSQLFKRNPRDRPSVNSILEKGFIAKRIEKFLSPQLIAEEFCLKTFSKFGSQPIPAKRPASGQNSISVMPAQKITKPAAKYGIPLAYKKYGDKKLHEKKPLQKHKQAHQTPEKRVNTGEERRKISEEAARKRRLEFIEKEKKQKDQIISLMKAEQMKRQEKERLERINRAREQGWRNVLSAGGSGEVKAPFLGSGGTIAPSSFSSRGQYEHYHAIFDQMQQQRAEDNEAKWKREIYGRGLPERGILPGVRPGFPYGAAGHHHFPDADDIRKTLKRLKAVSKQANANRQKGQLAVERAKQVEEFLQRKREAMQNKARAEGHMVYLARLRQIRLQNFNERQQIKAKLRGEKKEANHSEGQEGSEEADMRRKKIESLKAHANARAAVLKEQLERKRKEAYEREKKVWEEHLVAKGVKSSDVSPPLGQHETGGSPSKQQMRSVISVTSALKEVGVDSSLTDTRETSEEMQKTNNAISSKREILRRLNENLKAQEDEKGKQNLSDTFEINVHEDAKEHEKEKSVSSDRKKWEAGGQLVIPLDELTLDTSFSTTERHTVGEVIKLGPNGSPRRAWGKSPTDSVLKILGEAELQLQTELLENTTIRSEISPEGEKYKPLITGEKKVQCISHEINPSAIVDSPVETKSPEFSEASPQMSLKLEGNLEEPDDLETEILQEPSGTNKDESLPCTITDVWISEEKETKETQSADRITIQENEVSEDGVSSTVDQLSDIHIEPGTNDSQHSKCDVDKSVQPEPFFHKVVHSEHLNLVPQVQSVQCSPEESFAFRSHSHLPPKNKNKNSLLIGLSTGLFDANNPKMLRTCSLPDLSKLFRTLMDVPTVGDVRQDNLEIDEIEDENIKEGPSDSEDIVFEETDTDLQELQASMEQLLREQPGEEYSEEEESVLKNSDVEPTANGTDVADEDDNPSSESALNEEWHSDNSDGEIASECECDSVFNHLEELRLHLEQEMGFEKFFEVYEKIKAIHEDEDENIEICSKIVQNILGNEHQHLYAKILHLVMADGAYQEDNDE

Sequence of Calcium/calmodulin-dependent protein kinase type 1G (Homo sapiens) (Q96NX5 whole entry): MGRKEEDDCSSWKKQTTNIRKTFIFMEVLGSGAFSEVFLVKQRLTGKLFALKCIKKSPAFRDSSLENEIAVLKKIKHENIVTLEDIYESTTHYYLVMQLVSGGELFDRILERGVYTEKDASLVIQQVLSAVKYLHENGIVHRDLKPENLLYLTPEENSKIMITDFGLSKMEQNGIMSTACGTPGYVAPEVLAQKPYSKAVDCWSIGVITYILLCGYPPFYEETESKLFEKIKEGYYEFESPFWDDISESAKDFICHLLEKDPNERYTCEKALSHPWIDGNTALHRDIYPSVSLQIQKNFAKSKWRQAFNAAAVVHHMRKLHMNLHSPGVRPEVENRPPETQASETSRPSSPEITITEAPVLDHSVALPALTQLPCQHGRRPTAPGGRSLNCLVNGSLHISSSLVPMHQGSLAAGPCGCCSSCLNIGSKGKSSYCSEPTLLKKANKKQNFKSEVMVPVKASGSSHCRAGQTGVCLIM
Sequence of Insulin receptor-related protein (Homo sapiens) (P14616 27-742 limits assumed): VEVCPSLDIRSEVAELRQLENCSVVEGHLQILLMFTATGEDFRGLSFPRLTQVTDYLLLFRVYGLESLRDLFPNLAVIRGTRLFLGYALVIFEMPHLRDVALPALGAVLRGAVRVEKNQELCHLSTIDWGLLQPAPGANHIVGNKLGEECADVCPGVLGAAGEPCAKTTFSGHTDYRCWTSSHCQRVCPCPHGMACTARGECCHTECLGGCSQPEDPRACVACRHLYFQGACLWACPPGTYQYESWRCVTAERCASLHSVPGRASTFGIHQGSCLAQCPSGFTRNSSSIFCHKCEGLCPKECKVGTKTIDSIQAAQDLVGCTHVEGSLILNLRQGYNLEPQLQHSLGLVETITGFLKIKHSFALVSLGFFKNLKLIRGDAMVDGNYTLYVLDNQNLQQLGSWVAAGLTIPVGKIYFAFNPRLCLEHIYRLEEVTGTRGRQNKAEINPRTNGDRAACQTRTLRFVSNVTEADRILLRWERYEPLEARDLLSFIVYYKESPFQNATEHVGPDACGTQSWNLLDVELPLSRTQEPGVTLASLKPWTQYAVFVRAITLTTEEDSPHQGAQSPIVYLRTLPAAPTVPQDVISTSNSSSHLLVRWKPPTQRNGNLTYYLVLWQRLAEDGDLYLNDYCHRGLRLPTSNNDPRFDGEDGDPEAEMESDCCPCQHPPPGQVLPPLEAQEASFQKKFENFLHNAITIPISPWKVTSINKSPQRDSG
Sequence of Insulin receptor-related protein (Homo sapiens) (P14616 747-1297 limits assumed): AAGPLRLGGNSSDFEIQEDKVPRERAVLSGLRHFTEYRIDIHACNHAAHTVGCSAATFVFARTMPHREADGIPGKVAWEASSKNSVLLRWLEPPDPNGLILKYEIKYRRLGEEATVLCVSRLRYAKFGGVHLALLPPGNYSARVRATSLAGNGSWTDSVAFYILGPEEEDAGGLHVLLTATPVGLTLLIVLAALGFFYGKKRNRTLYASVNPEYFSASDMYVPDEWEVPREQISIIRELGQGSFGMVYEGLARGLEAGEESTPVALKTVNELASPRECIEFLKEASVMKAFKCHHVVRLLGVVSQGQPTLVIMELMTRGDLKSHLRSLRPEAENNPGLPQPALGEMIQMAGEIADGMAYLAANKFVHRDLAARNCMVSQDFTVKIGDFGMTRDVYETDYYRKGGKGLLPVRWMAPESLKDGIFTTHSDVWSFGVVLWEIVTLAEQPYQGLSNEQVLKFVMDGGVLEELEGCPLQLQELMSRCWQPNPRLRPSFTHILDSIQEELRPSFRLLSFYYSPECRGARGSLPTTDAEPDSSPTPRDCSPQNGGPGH
Sequence of Ribosomal protein S6 kinase alpha-3 (Homo sapiens) (P51812 whole entry): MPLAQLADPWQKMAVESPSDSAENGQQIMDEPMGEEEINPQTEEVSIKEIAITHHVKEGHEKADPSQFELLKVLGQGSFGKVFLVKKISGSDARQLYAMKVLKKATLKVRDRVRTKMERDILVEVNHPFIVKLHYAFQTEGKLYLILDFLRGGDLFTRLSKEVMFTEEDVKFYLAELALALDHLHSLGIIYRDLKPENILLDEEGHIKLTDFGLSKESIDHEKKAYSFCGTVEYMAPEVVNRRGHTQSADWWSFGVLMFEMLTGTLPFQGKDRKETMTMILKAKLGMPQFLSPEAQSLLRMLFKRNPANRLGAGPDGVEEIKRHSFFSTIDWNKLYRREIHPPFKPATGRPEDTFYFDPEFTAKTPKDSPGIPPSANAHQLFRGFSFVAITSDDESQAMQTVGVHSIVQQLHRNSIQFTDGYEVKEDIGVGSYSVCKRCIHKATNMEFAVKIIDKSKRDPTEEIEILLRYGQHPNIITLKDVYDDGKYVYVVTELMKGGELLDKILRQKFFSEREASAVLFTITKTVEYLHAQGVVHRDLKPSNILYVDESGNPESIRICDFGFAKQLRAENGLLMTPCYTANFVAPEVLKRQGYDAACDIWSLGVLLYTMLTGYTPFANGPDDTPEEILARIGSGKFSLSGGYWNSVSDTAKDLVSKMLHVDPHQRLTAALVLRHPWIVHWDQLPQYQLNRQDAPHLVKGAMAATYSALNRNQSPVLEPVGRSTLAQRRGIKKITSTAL
Sequence of Leukocyte tyrosine kinase receptor (Homo sapiens) (P29376 whole entry): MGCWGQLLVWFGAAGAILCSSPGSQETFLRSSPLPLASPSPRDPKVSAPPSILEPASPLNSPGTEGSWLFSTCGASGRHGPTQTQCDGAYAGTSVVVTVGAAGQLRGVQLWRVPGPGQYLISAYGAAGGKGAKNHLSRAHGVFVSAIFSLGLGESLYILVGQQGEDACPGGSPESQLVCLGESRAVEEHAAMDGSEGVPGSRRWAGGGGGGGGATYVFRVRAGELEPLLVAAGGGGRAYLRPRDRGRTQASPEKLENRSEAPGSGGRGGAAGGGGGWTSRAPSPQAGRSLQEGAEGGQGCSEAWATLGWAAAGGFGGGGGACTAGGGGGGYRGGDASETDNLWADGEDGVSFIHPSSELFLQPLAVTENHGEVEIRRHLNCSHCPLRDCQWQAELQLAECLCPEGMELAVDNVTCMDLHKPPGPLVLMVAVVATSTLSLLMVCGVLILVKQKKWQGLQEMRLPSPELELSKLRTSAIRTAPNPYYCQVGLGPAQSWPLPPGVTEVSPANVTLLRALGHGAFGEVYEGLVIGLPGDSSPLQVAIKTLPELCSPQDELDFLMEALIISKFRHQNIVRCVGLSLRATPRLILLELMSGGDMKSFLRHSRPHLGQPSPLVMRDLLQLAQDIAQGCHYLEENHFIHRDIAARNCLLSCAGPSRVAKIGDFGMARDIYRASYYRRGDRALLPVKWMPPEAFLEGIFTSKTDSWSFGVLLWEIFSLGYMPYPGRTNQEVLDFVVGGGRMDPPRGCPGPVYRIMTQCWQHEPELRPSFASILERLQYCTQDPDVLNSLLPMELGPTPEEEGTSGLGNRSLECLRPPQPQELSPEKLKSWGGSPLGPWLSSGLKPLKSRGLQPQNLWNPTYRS
Sequence of Myosin light chain kinase 2, skeletal/cardiac muscle (Homo sapiens) (Q9H1R3 whole entry): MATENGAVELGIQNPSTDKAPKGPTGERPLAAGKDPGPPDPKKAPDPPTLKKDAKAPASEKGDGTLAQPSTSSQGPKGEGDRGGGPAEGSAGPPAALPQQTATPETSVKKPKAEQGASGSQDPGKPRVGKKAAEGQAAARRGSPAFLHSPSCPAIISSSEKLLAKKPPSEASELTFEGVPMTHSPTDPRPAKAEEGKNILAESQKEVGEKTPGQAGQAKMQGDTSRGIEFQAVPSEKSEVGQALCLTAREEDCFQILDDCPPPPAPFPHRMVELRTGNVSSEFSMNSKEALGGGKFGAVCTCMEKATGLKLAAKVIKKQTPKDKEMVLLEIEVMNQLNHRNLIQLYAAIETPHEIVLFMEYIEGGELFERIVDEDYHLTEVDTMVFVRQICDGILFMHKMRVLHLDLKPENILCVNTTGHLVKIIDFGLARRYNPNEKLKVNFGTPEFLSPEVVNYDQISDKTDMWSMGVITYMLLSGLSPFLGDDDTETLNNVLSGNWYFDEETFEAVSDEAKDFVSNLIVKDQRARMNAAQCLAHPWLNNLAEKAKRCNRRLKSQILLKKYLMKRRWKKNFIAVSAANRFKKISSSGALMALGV
Sequence of Dual specificity protein kinase CLK3 (Homo sapiens) (P49761 whole entry, looked up): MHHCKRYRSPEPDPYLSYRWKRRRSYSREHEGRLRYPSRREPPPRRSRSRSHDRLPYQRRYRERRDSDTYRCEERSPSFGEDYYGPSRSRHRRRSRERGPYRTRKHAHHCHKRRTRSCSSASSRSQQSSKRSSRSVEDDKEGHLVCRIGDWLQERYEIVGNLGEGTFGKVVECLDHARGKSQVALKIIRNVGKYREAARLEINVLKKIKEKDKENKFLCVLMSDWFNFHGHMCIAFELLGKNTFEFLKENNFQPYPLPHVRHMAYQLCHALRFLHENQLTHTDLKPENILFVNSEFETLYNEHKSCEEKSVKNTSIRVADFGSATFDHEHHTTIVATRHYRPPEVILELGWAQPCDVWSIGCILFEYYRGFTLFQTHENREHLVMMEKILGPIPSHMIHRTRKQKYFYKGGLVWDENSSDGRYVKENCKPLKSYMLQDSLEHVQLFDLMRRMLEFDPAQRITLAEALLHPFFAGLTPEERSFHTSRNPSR

inhibition [2]: 100%
Compound: C[C@]1(O)C[C@@H](c2nc(-c3ccc4ccc(-c5ccccc5)nc4c3)c3c(N)nccn32)C1
inhibition [1]: 1.57%

inhibition [3]: -0.63% | inhibition [4]: -4.89% | inhibition [5]: 2.83% | inhibition [6]: -7.41% | inhibition [7]: -4.22% | inhibition [8]: -1.35% | inhibition [9]: 7.27%
Compound: C[C@@]1(C(=O)Nc2ccc(F)nc2)CCCN1c1nc(Nc2cc(C3CC3)n[nH]2)c2cccn2n1

Compound: Nc1n[nH]c2nnc(-c3c(-c4ccccc4)nn4ccccc34)cc12
inhibition [10]: -9.24%
